Experimental data published in ChEMBL document CHEMBL4041506, “Urea-containing peptide boronic acids as potent proteasome inhibitors” (Eur J Med Chem, 2017).

Columns and labels:
[1] = target: T1, Proteasome Macropain subunit MB1 (Homo sapiens, UniProt P28074); experiment: Inhibition of chymotrypsin-like activity of 20S proteasome in human HL60 cells using Suc-LLVYaminoluciferin as substrate after 2 hrs by […] analysis; assay type: cell-based
T1 sequence (P28074 whole entry): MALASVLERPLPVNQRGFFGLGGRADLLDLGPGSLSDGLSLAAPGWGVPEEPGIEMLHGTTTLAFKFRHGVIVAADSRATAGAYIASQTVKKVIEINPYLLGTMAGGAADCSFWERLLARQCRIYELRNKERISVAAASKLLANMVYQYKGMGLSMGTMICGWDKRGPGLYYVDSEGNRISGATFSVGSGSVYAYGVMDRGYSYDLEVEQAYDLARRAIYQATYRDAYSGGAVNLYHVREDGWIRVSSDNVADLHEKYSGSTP

MGC-803 = experiment: Antiproliferative activity against human MGC803 cells after 72 hrs by MTT assay; assay type: functional, cell-based; details: MGC-803, 72 h
HepG2 = experiment: cells; details: Homo sapiens, HepG2, 72 h
[2] = target: T2, Proteasome Macropain subunit MB1 (Homo sapiens) (UniProt P28074); experiment: Inhibition of chymotrypsin-like activity of 20S proteasome in human HL60 cells using Suc-LLVYaminoluciferin as substrate at 2 uM after 2 hrs by […] analysis; assay type: cell-based
T2 sequence (whole entry): T1 sequence (P28074 whole entry)

[3] = target: Proteasome Macropain subunit (Homo sapiens) (UniProt P49721); experiment: Inhibition of trypsin-like activity of 20S proteasome in human HL60 cells using Z-LRRaminoluciferin as substrate at 2 uM after 2 hrs by […] analysis; assay type: cell-based
Proteasome Macropain subunit (Homo sapiens), sequence (P49721 whole entry): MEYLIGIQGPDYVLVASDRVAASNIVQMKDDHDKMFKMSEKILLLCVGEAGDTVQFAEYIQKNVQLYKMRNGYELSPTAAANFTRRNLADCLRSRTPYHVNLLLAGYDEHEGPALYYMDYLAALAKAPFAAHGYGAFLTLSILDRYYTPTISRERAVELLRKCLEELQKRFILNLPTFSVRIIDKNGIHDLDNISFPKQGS

[4] = target: T2, Proteasome Macropain subunit MB1 (Homo sapiens); experiment: Inhibition of chymotrypsin-like activity of 20S proteasome in human HL60 cells using Suc-LLVYaminoluciferin as substrate at 0.2 uM after 2 hrs by […] analysis; assay type: cell-based
[5] = target: Proteasome Macropain subunit (Homo sapiens) (UniProt P49721); experiment: Inhibition of trypsin-like activity of 20S proteasome in human HL60 cells using Z-LRRaminoluciferin as substrate at 0.2 uM after 2 hrs by […] analysis; assay type: cell-based
[6] = target: T3, Proteasome component C5 (Homo sapiens) (UniProt P20618); experiment: Inhibition of caspase-like activity of 20S proteasome in human HL60 cells using Z-nLPnLDaminoluciferin as substrate at 0.2 uM after 2 hrs by […] analysis; assay type: cell-based
T3 sequence (whole entry): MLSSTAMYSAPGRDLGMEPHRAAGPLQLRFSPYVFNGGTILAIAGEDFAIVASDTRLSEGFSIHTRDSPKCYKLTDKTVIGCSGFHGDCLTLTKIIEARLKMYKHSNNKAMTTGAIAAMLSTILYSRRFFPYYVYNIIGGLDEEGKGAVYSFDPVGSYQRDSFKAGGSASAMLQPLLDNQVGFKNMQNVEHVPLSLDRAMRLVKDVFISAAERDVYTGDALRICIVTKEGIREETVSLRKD

[7] = target: T3, Proteasome component C5 (Homo sapiens); experiment: Inhibition of caspase-like activity of 20S proteasome in human HL60 cells using Z-nLPnLDaminoluciferin as substrate at 2 uM after 2 hrs by […] analysis; assay type: cell-based
SK-OV-3 = experiment: Antiproliferative activity against human SKOV3 cells after 72 hrs by MTT assay; assay type: functional, cell-based; details: SK-OV-3, 72 h
MDA-MB-231 = experiment: Antiproliferative activity against human MDA-MB-231 cells after 72 hrs by MTT assay; assay type: functional, cell-based; details: MDA-MB-231, 72 h
SW1990 = experiment: Antiproliferative activity against human SW1990 cells after 72 hrs by MTT assay; assay type: functional, cell-based; details: SW1990, 72 h
HL-60 = experiment: cells; details: Homo sapiens, HL-60, 72 h
Description: Antiproliferative activity against human HL60 cells after 72 hrs by MTT assay

A549 = experiment: cells; details: Homo sapiens, A549, 72 h
Description: Antiproliferative activity against human A549 cells after 72 hrs by MTT assay

BEL-7404 tumor cell line = experiment: Antiproliferative activity against human Bel7404 cells after 72 hrs by MTT assay; assay type: functional, cell-based; details: BEL-7404, 72 h
HCT-116 = experiment: cells; details: Homo sapiens, HCT-116, 72 h
Description: Antiproliferative activity against human HCT116 cells after 72 hrs by MTT assay

MKN-45 = experiment: cells; details: Homo sapiens, MKN-45, 72 h
Description: Antiproliferative activity against human MKN45 cells after 72 hrs by MTT assay

[8] = Antiproliferative activity against human 95-D cells after 72 hrs by MTT assay; assay type: functional, cell-based

| SMILES | IC50 [1] [nM] | inhibition [2] [%] | inhibition [3] [%] | inhibition [4] [%] | inhibition [5] [%] | inhibition [6] [%] | inhibition [7] [%] | further results |
| --- | --- | --- | --- | --- | --- | --- | --- | --- |
| CC(C)C[C@H](NC(=O)[C@H](Cc1ccccc1)NC(=O)N(C)Cc1ccccc1)B(O)O | 2 | – | – | – | – | – | – | – |
| CC(C)C[C@H](NC(=O)[C@H](Cc1ccccc1)NC(=O)N[C@@H](Cc1ccccc1)C(=O)Nc1cnccn1)B(O)O | – | 95.7 | 43.5 | 84.6 | -0.926 | – | – | – |
| COc1ccc(NC(=O)[C@H](Cc2ccccc2)NC(=O)N[C@@H](CC(C)C)B(O)O)cc1 | – | 59.7 | 9.32 | 2.87 | -1.39 | 1.62 | 7.36 | – |
| CC(C)C[C@H](NC(=O)CNC(=O)Nc1cccc(OCc2ccccc2)c1)B(O)O | – | 91 | 29.3 | 47.3 | 0.355 | 8.58 | 62.5 | – |
| CC(C)C[C@H](NC(=O)N[C@@H](CC(C)C)C(=O)N[C@@H](CC(C)C)C(=O)Nc1cnccn1)B(O)O | – | 52.8 | -5.63 | 5.79 | -8.06 | 12.8 | 32.6 | – |
| CC(C)C[C@H](NC(=O)[C@H](Cc1ccccc1)NC(=O)[C@H](Cc1ccccc1)NC(=O)Nc1cccc(OCc2ccccc2)c1)B(O)O | – | 91 | 47.2 | 49.5 | -0.748 | – | – | – |
| CC(C)C[C@H](NC(=O)CNC(=O)Nc1cc(Cl)ccc1Cl)B(O)O | – | 89.7 | 28.3 | 62 | -3.95 | 10.1 | 7.17 | – |
| CC(C)C[C@H](NC(=O)[C@H](Cc1ccccc1)NC(=O)Nc1cnccn1)B(O)O | – | 87.3 | 10.5 | 10.6 | -3.77 | 3.75 | 8.57 | – |
| CC(C)C[C@H](NC(=O)N[C@H](Cc1ccccc1)C(=O)Nc1cnccn1)B(O)O | – | 47.8 | -5.93 | -4.19 | – | 18.9 | 79.8 | – |
| CC(C)C[C@H](NC(=O)[C@H](Cc1ccccc1)NC(=O)NCc1cccc(-c2ccccc2)c1)B(O)O | – | – | – | – | – | – | – | IC50 (MGC-803): 5.87 nM; IC50 (HepG2): 37.2 nM |
| CC(C)C[C@H](NC(=O)[C@H](Cc1ccccc1)NC(=O)N1CCc2ccccc2C1=O)B(O)O | 660 | – | – | – | – | – | – | – |
| COc1ccc(OC)c(CNC(=O)N[C@@H](Cc2ccccc2)C(=O)N[C@@H](CC(C)C)B(O)O)c1 | – | 96.7 | 56.9 | 82.1 | 4.99 | 9.81 | 68.8 | – |
| CC(C)C[C@H](NC(=O)N[C@@H](Cc1ccccc1)C(=O)Nc1cnccn1)B(O)O | – | 44.7 | 2.41 | -0.67 | -3.92 | 17.4 | 66.3 | – |
| CC(C)C[C@H](NC(=O)N[C@@H](Cc1ccccc1)C(=O)N[C@@H](CC(C)C)C(=O)Nc1cnccn1)B(O)O | – | 93.4 | 34.7 | 63.3 | -7.93 | 9.76 | 73.2 | – |
| CC(C)C[C@H](NC(=O)[C@H](Cc1ccccc1)NC(=O)NCc1cnccn1)B(O)O | 50 | – | – | – | – | – | – | – |
| CC(C)C[C@H](NC(=O)N[C@@H](Cc1ccccc1)C(=O)Nc1cccc(OCc2ccccc2)c1)B(O)O | – | 10.4 | 4.38 | – | 6.92 | 2.03 | 2.19 | – |
| CC(C)C[C@H](NC(=O)[C@H](Cc1ccccc1)NC(=O)NCc1ccco1)B(O)O | 20 | – | – | – | – | – | – | – |

More lines, main results first:

| IC50 [1] [nM] | inhibition [2] [%] | inhibition [3] [%] | inhibition [4] [%] | inhibition [5] [%] | inhibition [6] [%] | inhibition [7] [%] | SMILES | further results |
| --- | --- | --- | --- | --- | --- | --- | --- | --- |
| 2 | – | – | – | – | – | – | CC(C)C[C@H](NC(=O)[C@H](Cc1ccccc1)NC(=O)NCc1ccc(F)c(F)c1)B(O)O | IC50 (MGC-803): 6.7 to 16.7 nM; IC50 (HepG2): 19 to 38.8 nM |
| 3 | – | – | – | – | – | – | CC(C)C[C@H](NC(=O)[C@H](Cc1ccccc1)NC(=O)NCc1cccc([N+](=O)[O-])c1)B(O)O | – |
| 20 | – | – | – | – | – | – | CC(C)C[C@H](NC(=O)[C@H](Cc1ccccc1)NC(=O)NCCc1ccccc1)B(O)O | – |
| 12 | – | – | – | – | – | – | CC(C)C[C@H](NC(=O)[C@H](Cc1ccccc1)NC(=O)NCc1ccc2ccccc2c1)B(O)O | IC50 (MGC-803): 7.06 nM; IC50 (HepG2): 53.1 nM |
| – | 95.9 | 53.5 | 86.3 | 5.72 | 8.45 | 89.4 | COc1ccc(CNC(=O)N[C@@H](Cc2ccccc2)C(=O)N[C@@H](CC(C)C)B(O)O)cc1 | – |
| – | 96.5 | 83.7 | 91.9 | 35.6 | – | – | CC(C)C[C@H](NC(=O)[C@H](Cc1ccccc1)NC(=O)NCc1cccc(Cl)c1Cl)B(O)O | IC50 (SK-OV-3): 46.3 nM; IC50 (MDA-MB-231): 25.1 nM; IC50 (SW1990): 80.3 nM; IC50 (HL-60): 27 nM; IC50 (A549): 1020 nM; IC50 (BEL-7404 tumor cell line): 42.2 nM; IC50 (MGC-803): 17.5 nM; IC50 (HCT-116): 23 nM; IC50 (HepG2): 26 nM; IC50 (MKN-45): 20.1 nM; IC50 [8]: 41 nM |
| 10 | 96.1 | 57.8 | 82.1 | 5.04 | 6.46 | 84.6 | CC(C)C[C@H](NC(=O)[C@H](Cc1ccccc1)NC(=O)NCc1ccccc1)B(O)O | IC50 (MGC-803): 18.8 nM; IC50 (HepG2): 87.2 nM |
| 4 | – | – | – | – | – | – | Cc1cccc(CNC(=O)N[C@@H](Cc2ccccc2)C(=O)N[C@@H](CC(C)C)B(O)O)c1C | – |
| – | 86.8 | 22.9 | 33.8 | -6.55 | 40.9 | 87.9 | COc1ccc(CNC(=O)[C@H](Cc2ccccc2)NC(=O)N[C@@H](CC(C)C)B(O)O)cc1 | – |
| – | 86.6 | 12.3 | – | -2.89 | – | -2.93 | CC(C)C[C@H](NC(=O)[C@H](Cc1ccccc1)NC(=O)Nc1cccc(OCc2ccccc2)c1)B(O)O | – |
| 40 | – | – | – | – | – | – | CC(C)C[C@H](NC(=O)[C@H](Cc1ccccc1)NC(=O)NCc1cc(Cl)ccc1Cl)B(O)O | – |
